Tested on: PBMC of newly diagnosed T1D patients
Experiment: GAD65 HLA class I tetramer staining and flow cytometry of stimulated PBMC, T1D patients
Format: cell-based, human

VMNILLQYV [GAD65 peptide]
% of CD3+/CD8+/GAD65 reactive T cells (specificity of the response): 6.39%

— patent publication US20070026465A1, “Method for detecting GAD65 autoreactive T cells newly diagnosed type1 diabetic patients and in the prediabetic period” (priority 2005, published 2007)
